{"source": "patent US12590070B2", "about": "“Adamantane derivatives as inhibitors of focal adhesion kinase” (SAMJIN PHARMACEUTICAL CO., LTD., priority 2019, dated 2026)", "key": {"FAK [1]": {"biological_target": "T1, FAK (Homo sapiens, UniProt Q05397)", "T1 sequence (Q05397 whole entry)": "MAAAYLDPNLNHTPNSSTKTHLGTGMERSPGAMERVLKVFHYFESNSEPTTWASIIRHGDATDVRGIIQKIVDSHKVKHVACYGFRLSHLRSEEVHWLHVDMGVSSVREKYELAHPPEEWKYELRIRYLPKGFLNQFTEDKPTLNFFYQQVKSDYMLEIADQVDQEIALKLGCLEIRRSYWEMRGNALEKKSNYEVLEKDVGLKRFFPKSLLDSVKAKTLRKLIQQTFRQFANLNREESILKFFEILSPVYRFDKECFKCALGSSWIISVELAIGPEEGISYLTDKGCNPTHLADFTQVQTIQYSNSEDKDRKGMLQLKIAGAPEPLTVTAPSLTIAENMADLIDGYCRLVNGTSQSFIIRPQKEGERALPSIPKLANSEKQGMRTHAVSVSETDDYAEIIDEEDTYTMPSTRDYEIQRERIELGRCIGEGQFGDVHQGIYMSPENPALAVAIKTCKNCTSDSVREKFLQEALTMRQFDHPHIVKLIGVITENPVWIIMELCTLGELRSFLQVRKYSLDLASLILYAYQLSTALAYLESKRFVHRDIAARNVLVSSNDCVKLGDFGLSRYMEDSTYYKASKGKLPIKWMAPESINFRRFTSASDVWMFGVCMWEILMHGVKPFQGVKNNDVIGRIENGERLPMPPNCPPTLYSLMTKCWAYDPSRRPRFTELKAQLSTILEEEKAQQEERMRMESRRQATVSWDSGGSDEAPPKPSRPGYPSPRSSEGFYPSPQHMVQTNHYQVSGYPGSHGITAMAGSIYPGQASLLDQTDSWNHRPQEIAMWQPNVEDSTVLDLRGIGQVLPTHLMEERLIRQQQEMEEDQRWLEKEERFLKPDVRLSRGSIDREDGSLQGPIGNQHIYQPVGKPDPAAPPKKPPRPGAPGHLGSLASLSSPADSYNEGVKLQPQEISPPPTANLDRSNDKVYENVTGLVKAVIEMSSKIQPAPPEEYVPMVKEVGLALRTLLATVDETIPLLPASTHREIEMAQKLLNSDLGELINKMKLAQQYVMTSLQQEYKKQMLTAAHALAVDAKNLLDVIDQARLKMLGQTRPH", "test": "Eurofins kinase screening and profiling, FAK", "type": "biochemical", "set-up": "purchased Promega V1971"}, "MDA-MB-231 cells [2]": {"test_system": "MDA-MB-231 cells", "test": "Triple-negative breast cancer xenograft mouse model", "type": "in vivo", "conditions": "MDA-MB-231 xenograft nude mice", "method": "In one week after acclimatization of five-week-old male nude mice, 1×10^6 MDA-MB-231 cells were subcutaneously inoculated into the mice and observed until a tumor volume reached about 100 mm^3 after 14 days. In order to confirm a tumor growth inhibitory effect of derived candidate materials in the triple-negative breast cancer xenograft mouse model, eight mice for each group were divided into a control group and three experimental groups at different concentrations (4-20 mg/kg, 4-40 mg/kg and 4-80 mg/kg), and each compound was treated once daily. A tumor volume of the mice was measured three times a week on every other day, and the mice were sacrificed on day 29 after cell inoculation. FIG. 4 is a graph showing the tumor volume calculated based on the following formula (Equation 2) with a starting date of drug treatment as day 1. Tumor volume (mm^3)=[(tumor short diameter^2×tumor long diameter)/2] [Equation 2] […] [Equation 3]"}, "FAK [3]": {"biological_target": "T1, FAK", "test": "FAK [pY397] ELISA in Hs578T cells", "type": "cell-based", "set-up": "endogenous in cells; host or cells: MDA-MB-231", "conditions": "cell line Hs578T; read-out: FAK inhibitory activity (IC50)"}, "FAK [4]": {"biological_target": "T1, FAK", "test": "FAK [pY397] ELISA in HCC70 cells", "type": "cell-based", "set-up": "endogenous in cells; host or cells: MDA-MB-231", "conditions": "cell line HCC70; read-out: FAK inhibitory activity (IC50)", "method": "(§1) Briefly, an enzyme-linked immunosorbent assay test was performed according to the manufacturer's instructions by using the FAK (Phospho) [pY397] Human ELISA Kit (Thermo Fisher Scientific, KH00441) after dispensing 1×10^6 MDA-MB-231 cells into each well of a 6-well plate, inducing cell stabilization for 24 hours, and treating each compound at different concentrations (o, 1, 5, 10, 50, 100, 500, 1000 nM) for one hour."}, "Pyk2 [5]": {"biological_target": "T2, Pyk2 (Homo sapiens, UniProt Q14289)", "T2 construct": "purchased Promega V4083", "T2 sequence (Q14289 whole entry)": "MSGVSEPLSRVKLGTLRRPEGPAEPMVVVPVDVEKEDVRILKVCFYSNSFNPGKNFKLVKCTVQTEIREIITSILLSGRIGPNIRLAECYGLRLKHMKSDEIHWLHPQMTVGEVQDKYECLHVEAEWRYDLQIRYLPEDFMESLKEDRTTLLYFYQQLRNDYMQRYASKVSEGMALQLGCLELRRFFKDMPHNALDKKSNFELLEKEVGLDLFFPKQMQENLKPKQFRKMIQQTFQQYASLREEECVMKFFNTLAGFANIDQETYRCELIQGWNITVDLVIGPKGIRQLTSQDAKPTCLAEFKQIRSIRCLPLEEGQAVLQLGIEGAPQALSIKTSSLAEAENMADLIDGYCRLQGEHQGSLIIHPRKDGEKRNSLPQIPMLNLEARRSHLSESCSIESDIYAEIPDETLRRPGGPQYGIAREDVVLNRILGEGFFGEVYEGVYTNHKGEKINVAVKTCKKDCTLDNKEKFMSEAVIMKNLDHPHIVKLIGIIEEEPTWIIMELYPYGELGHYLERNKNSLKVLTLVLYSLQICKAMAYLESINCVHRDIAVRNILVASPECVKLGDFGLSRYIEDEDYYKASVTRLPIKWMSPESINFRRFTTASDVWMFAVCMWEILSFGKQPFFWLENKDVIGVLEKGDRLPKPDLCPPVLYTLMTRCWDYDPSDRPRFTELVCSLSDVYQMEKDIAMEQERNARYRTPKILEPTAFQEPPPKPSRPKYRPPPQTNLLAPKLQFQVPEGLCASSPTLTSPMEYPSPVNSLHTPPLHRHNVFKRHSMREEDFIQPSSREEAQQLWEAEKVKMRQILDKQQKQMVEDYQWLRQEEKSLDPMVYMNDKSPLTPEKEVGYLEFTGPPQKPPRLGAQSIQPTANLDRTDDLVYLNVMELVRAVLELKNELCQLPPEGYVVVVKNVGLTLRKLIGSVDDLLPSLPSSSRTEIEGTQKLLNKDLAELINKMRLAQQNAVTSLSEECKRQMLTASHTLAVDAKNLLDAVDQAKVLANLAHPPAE", "test": "ADP-Glo Kinase Assay, Pyk2", "type": "biochemical", "conditions": "ADP-Glo Kinase Assay Kit", "method": "(§2) Briefly, a kinase test was performed and quantified according to the manufacturer's instructions after treating the adamantane derivative compound of the present invention by using the ADP-Glo™ Kinase Assay Kit (FAK, Promega, V1971; Pyk2, Promega, V4083; InsR, Promega, V9401) containing each kinase of Promega."}, "FAK [6]": {"biological_target": "T1, FAK", "test": "FAK [pY397] ELISA in MDA-MB-453 cells", "type": "cell-based", "set-up": "endogenous in cells; host or cells: MDA-MB-231", "conditions": "cell line MDA-MB-453; read-out: FAK inhibitory activity (IC50)"}, "Met": {"biological_target": "T3, Met (Homo sapiens, UniProt P08581)", "T3 construct": "purchased Eurofins (contract screening service)", "T3 sequence (P08581 25-1390)": "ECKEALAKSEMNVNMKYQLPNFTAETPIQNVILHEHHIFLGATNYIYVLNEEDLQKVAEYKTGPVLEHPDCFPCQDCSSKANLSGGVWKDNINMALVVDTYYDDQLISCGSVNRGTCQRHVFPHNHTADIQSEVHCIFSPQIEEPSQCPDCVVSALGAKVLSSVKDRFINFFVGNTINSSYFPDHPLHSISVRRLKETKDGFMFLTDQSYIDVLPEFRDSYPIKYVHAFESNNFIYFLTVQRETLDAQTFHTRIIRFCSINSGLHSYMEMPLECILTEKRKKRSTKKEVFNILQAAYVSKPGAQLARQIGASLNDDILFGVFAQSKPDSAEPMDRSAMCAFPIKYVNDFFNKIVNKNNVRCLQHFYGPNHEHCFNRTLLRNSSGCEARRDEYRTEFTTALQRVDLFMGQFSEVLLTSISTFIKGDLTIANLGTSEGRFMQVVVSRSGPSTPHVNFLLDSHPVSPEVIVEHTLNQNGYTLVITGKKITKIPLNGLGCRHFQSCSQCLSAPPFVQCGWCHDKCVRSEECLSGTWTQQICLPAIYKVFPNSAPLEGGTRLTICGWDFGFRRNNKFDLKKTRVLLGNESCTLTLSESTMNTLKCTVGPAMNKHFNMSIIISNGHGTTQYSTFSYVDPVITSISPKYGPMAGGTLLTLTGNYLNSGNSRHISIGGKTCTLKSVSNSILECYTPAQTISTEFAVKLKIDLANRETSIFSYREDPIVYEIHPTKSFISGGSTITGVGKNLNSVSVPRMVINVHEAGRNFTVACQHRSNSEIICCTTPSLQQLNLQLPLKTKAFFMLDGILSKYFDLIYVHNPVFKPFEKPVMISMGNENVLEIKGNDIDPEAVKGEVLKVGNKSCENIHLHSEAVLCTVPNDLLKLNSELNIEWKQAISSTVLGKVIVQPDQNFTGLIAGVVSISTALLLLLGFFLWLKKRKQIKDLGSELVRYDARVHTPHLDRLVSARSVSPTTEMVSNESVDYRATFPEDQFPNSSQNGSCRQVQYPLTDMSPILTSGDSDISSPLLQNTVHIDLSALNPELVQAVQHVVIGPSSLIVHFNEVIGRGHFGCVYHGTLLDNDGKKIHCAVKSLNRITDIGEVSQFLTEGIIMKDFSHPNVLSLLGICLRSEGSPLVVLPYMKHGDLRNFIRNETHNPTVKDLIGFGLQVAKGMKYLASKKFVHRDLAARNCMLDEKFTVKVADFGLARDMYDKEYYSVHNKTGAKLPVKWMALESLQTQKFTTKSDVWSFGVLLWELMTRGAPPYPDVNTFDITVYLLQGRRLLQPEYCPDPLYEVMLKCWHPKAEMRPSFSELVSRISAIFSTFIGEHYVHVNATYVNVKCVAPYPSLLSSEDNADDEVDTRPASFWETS", "test": "Eurofins kinase screening and profiling, Met", "type": "biochemical"}, "FAK [7]": {"biological_target": "T1, FAK", "test": "FAK [pY397] ELISA in BT-549 cells", "type": "cell-based", "set-up": "endogenous in cells; host or cells: MDA-MB-231", "conditions": "cell line BT-549; read-out: FAK inhibitory activity (IC50)"}, "MDA-MB-453": {"test_system": "MDA-MB-453", "test": "3D spheroid assay, MDA-MB-453", "type": "cell-based", "conditions": "Homo sapiens; MDA-MB-453 spheroids, 96 hours; read-out: Cancer cell growth inhibitory activity (IC50)", "method": "(§3) A 3D spheroid assay was performed as a method for measuring the growth of cancer cells under three-dimensional (3D) culture conditions. Briefly, the 5×10^3 triple-negative breast cancer cells in each well of a 96-well flat plate were three-dimensionally cultured for three days by using MammoCult™ Human Medium Kit (Stemcell Technologies, #05620) and the formed cancer cell spheroids were treated with compound 4 at different concentrations (o, 0.2, 0.5, 1, 2, 5, 10, 20 PM) for 96 hours. The cancer cell growth inhibitory effect of the compound was quantified according to the manufacturer's instructions by using CellTiter-Glo® 3D Cell Viability Assay Kit (Promega, G9681)."}, "Hs578T": {"test_system": "Hs578T", "test": "3D spheroid assay, Hs578T", "type": "cell-based", "conditions": "Homo sapiens, Hs-578T; Hs578T spheroids, 96 hours; read-out: Cancer cell growth inhibitory activity (IC50)", "method": "as §3"}, "InsR": {"biological_target": "T4, InsR (Homo sapiens, UniProt P06213)", "T4 construct": "purchased Promega V9401", "test": "ADP-Glo Kinase Assay, InsR", "type": "biochemical", "conditions": "ADP-Glo Kinase Assay Kit", "method": "as §2"}, "Pyk2 [8]": {"biological_target": "T2, Pyk2", "test": "Eurofins kinase screening and profiling, Pyk2", "type": "biochemical"}, "FAK [9]": {"biological_target": "T1, FAK", "test": "FAK [pY397] ELISA in MDA-MB-231 cells", "type": "cell-based", "set-up": "endogenous in cells; host or cells: MDA-MB-231", "conditions": "MDA-MB-231, treated for one hour, Table 2; read-out: FAK inhibitory activity (IC50)", "method": "as §1"}, "FAK [10]": {"biological_target": "T1, FAK", "test": "ADP-Glo Kinase Assay, FAK", "type": "biochemical", "set-up": "purchased Promega V1971", "conditions": "ADP-Glo Kinase Assay Kit", "method": "as §2"}, "FAK [11]": {"biological_target": "T1, FAK", "test": "FAK [pY397] ELISA in BT-20 cells", "type": "cell-based", "set-up": "endogenous in cells; host or cells: MDA-MB-231", "conditions": "cell line BT-20; read-out: FAK inhibitory activity (IC50)"}, "MDA-MB-231 cells [12]": {"test_system": "MDA-MB-231 cells", "test": "3D invasion assay", "type": "cell-based, human", "conditions": "MDA-MB-231 spheroids, 1, 5 μM, 72 hours, FIGS. 2 and 3", "method": "A cell invasion assay was performed and quantified according to a 3D invasion assay. Briefly, MDA-MB-231 cells were cultured in a 96-well round plate (5×10^3/well) for three days to form cancer cell spheroids, then fixed in a mixture of semi-solid Matrigel and type I collagen, and then treated with compound 4 at different concentrations (1, 5 μM). A degree of infiltration was analyzed by using a microscope (see FIG. 2) and an imaging software ImageJ in 72 hours later, and an obtained area value was quantified based on a following equation (Equation 1) and shown in a graph (see FIG. 3). Relative invasion=(total area of compound treated group−spheroid area of compound treated group)/(total area of control−spheroid area of control) [Equation 1]"}, "ALK": {"biological_target": "T5, ALK (Homo sapiens, UniProt Q9UM73)", "T5 construct": "purchased Eurofins (contract screening service)", "T5 sequence (Q9UM73 19-1620)": "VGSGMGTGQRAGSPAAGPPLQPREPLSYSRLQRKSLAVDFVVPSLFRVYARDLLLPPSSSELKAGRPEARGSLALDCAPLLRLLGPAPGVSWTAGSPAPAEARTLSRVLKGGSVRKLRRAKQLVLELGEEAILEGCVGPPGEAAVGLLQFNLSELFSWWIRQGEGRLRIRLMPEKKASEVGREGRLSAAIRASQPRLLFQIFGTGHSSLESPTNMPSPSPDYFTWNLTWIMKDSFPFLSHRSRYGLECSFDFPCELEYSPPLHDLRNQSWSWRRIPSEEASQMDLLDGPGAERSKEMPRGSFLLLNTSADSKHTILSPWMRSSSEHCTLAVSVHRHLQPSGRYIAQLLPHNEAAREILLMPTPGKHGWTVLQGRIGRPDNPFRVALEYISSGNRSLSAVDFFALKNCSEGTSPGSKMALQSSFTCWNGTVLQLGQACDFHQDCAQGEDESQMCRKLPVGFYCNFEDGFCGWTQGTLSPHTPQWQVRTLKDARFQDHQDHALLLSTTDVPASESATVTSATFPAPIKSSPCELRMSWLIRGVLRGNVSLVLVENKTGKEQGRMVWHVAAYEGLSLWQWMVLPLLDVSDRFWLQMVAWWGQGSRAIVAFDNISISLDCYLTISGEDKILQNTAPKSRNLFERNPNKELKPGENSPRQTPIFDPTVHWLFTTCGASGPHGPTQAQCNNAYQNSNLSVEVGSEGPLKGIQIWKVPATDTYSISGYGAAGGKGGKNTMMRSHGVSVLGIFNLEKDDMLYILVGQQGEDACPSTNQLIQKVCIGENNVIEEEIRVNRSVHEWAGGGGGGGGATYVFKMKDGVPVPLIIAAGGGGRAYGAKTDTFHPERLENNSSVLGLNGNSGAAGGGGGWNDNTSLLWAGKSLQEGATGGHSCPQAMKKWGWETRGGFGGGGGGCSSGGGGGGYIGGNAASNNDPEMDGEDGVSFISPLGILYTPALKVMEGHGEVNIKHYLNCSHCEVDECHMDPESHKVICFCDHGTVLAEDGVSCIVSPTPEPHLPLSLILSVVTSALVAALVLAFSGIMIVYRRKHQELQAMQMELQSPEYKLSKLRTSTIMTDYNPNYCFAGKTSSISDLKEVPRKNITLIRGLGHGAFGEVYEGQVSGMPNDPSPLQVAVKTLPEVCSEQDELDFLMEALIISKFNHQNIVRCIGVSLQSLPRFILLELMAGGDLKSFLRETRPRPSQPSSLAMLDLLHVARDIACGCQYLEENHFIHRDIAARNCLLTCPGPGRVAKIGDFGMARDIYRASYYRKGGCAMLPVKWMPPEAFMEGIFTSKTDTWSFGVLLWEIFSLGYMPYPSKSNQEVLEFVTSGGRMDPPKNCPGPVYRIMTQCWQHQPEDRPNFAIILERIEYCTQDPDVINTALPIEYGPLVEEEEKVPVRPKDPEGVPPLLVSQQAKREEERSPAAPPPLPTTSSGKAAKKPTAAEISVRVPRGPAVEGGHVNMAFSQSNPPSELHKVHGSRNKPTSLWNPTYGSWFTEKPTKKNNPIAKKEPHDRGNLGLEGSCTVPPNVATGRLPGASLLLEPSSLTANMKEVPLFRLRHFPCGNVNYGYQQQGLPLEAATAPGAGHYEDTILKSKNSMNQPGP", "test": "Eurofins kinase screening and profiling, ALK", "type": "biochemical"}, "[13]": {"conditions": "at 1 μM, read-out: % inhibition rate (at 1 μM)"}}, "note": "pIC50: −log10 of the molar value."}
{"smiles": "CNC(=O)c1cccc(C)c1Nc1nc(Nc2ccc(N3CCN([C@H]4C5CC6CC4C[C@](O)(C6)C5)CC3)cc2OC)ncc1C(F)(F)F", "note": "[Compound 4, 2-((2-((4-(4-((trans)-5-hydroxyadamantan-2-yl)piperazin-1-yl)-2-methoxyphenyl)amino)-5-(trifluoromethyl)pyrimidin-4-yl)amino)-N,3-dimethylbenzamide]", "values": [{"measurement": "pIC50", "setting": "FAK [1]; Eurofins", "value": 7.11}, {"measurement": "inhibition at 1 µM", "setting": "FAK [1]; [13]", "value": 97, "unit": "%"}, {"measurement": "% TGI", "setting": "MDA-MB-231 cells [2]; 20 mg/kg once daily", "value": 72.11, "unit": "%"}, {"measurement": "% TGI", "setting": "MDA-MB-231 cells [2]; 40 mg/kg once daily", "value": 74.03, "unit": "%"}, {"measurement": "% TGI", "setting": "MDA-MB-231 cells [2]; 80 mg/kg once daily", "value": 81.28, "unit": "%"}, {"measurement": "pIC50", "setting": "FAK [3]", "value": 7.70}, {"measurement": "pIC50", "setting": "FAK [4]", "value": 7.23}, {"measurement": "pIC50", "setting": "Pyk2 [5]", "value": 6.82}, {"measurement": "pIC50", "setting": "FAK [6]", "value": 7.70}, {"measurement": "pIC50", "setting": "Met; Eurofins", "value": 6.27}, {"measurement": "inhibition at 1 µM", "setting": "Met; [13]", "value": 79, "unit": "%"}, {"measurement": "pIC50", "setting": "FAK [7]", "value": 7.31}, {"measurement": "pIC50", "setting": "MDA-MB-453", "value": 5.98}, {"measurement": "pIC50", "setting": "Hs578T", "value": "< 5.00"}, {"measurement": "pIC50", "setting": "InsR", "value": 5.25}, {"measurement": "pIC50", "setting": "Pyk2 [8]; Pyk2, Eurofins", "value": 6.52}, {"measurement": "inhibition at 1 µM", "setting": "Pyk2 [8]; Pyk2, at 1 μM, read-out: % inhibition rate (at 1 μM)", "value": 96, "unit": "%"}, {"measurement": "pIC50", "setting": "FAK [9]", "value": 7.47}, {"measurement": "pIC50", "setting": "FAK [10]", "value": 7.34}, {"measurement": "pIC50", "setting": "FAK [11]", "value": 7.20}, {"measurement": "invasion inhibitory activity", "setting": "MDA-MB-231 cells [12]", "value": "excellent invasion inhibitory activity"}, {"measurement": "pIC50", "setting": "ALK; Eurofins", "value": 6.10}, {"measurement": "inhibition at 1 µM", "setting": "ALK; [13]", "value": 72, "unit": "%"}]}
